The text below walks through data of US20210386779A1, “COMPOSITIONS AND METHODS FOR DIETARY ENHANCEMENT OF IMMUNE SYSTEM FUNCTION” (priority 2020, published 2021).

The subject of series [1] is COVID-19 and other flu-like illnesses (SARS-CoV-2). In words: 20-week clinical study: test group taking the core formulations monitored for symptoms of flu-like illness, with focus on COVID-19. The series is classed as in vivo, human. As to conditions: for prophylactic efficacy against COVID-19 and other flu-like illnesses (conclusion in words): 20-week study; for symptomatic control group subjects (of 12) who had maintained supplementation with this component alone, without other core formulation components: 20 weeks, vitamin C 500-1000 mg daily, vitamin D3 1000-2000 IU daily. An excerpt:
From late February/early March 2020, we recommended to patients seen in-office (and to numerous telemedicine patients) and to our staff members to follow a regimen of at least the core formulations. Of in-office patients and staff, 54 subjects started with the study's voluntary OTC regimen and, thereby, constituted the study test group (reduced to 53 subjects after the second study week by a voluntary withdrawal); while 60 declined the regimen—for reasons, when given, involving implementation's complexity and/or effort; and/or indicating barriers to implementation stemming from educational and/or socio-economic background—and constituted the study control group.
Over the study period, we monitored subjects for symptoms of flu-like illness, with an active focus on COVID-19. At the outset of the pandemic, our practice's access to COVID-19 testing was quite limited. At that point, we identified subjects as confirmed COVID-19 cases or, at least, as likely COVID-19 cases upon their earliest presentation of clinical symptoms of COVID-19; or upon their being test-confirmed as COVID cases as documented in locales and practices where testing was available. Asymptomatic/pre-symptomatic subjects—with special note taken of documented, self-reported or likely exposure to diagnosed or suspected COVID-19 cases—as well as subjects presenting symptoms of unspecified flu-like illnesses, were followed for subsequent development of COVID-19 symptoms. As testing became more available, the state/regional protocols were such that we would receive notification of individual ones among our subjects having tested positive, the testing generally conducted by a subject's primary care provider, and the notifications then sent by Ohio health agencies to all the infected patient's physicians.
One dose daily of the full core formulation regimen, as per Table 2.
Over the study period of 20+ weeks, we monitored 113 subjects (104 in-office patients and 9 staff members) for clinical symptoms of flu-like illnesses, with subsequent differential diagnosis (and, when available, with test-confirmation) of each symptomatic subject to distinguish COVID-19 from non-COVID-19 flu-like illness. We also maintained data of reported and/or observed subject exposures to clinical and/or test-confirmed cases of COVID-19.
The OTC regimen undertaken by test group subjects included the core formulations of zinc, zinc ionophores, vitamins and l-lysine, as well as at least some of the methods. […]

Series [2] in a line: Supplement-specific monitoring for side effects and toxicity over the study period. As to conditions: in vivo, po. Set-up: species or system human.
Excerpt: Monitoring tor such side effects is expected to continue over and beyond the period of quina bark extract administration.
It appears to be appropriate to continue monitoring for oncological side effects over and beyond the period of quercetin administration.
Series [3] concerns the target SARS-CoV-2 viral S-spike binding to cells (UniProt P0DTC2+Q9BYF1). As to conditions: supercomputer docking; cited from earlier work.

As for `C=C1CC[C@H](O)C/C1=C/C=C1\CCC[C@]2(C)[C@@H]([C@H](C)CCCC(C)C)CC[C@@H]12` [vitamin D3], in series [1], the “prophylactic efficacy against COVID-19 and other flu-like illnesses (conclusion in words)” value is recorded as “relative lack of anti-flu/anti-COVID-19 prophylactic efficacy”; the “symptomatic control group subjects (of 12) who had maintained supplementation with this component alone, without other core formulation components” value was “at least three”.

For the molecule `O=c1c(O)c(-c2ccc(O)c(O)c2)oc2cc(O)cc(O)c12` [quercetin], the “complications, side effects or toxicity observed over the study period” value in series [2] is reported as “received no reports nor found any clinical signs of quercetin toxicity”. The “rank for inhibition of SARS-CoV-2 viral S-spike binding to cells among FDA-approved compounds” value in series [3] is on record as “fifth out of twenty top performers”.

On to `O=C1O[C@H]([C@@H](O)CO)C(O)=C1O` [vitamin C], for which, in series [1], the “prophylactic efficacy against COVID-19 and other flu-like illnesses (conclusion in words)” value was “relative lack of anti-flu/anti-COVID-19 prophylactic efficacy”; the “symptomatic control group subjects (of 12) who had maintained supplementation with this component alone, without other core formulation components” value is “at least four”.
